# Assay results from US11147272B2, “Pyridone compounds and agricultural and horticultural fungicides comprising the same as active ingredients” (MITSUI CHEMICALS AGRO, INC., priority 2017, dated 2021).
# Experiments:
# [1] = tested on: Puccinia recondita; assay: Test Example E: Brown rust on wheat; format: in vivo; conditions: for Test E control value class / pest or weed control at 250 µg/mL: class of control value; for pest or weed control at 250 µg/mL: Puccinia recondita, topical, read-out: Test E control value class
# [2] = tested on: Colletotrichum orbiculare; assay: Test Example H: Anthracnose on cucumber; conditions: for Test H control value class: Anthracnose on cucumber (Sagami Hanjiro), 2.5 ml/pot, assessed 6 to 10 days after inoculation; for Test H control value: 6 to 10 days after inoculation; for pest or weed control at 250 ppm: Colletotrichum orbiculare, in Cucumis sativus, topical, read-out: Test H control value class
# [3] = tested on: Botrytis cinerea; assay: Test Example B: Gray mold on tomato; conditions: for Test B control value class: class of control value; for pest or weed control at 250 µg/mL: Botrytis cinerea, in Solanum lycopersicum, topical, read-out: Test B control value class
# [4] = tested on: Magnaporthe grisea; assay: whole plant or invertebrate; format: in vivo; conditions: for Test A control value class: class of control value; for pest or weed control at 250 µg/mL: Pyricularia oryzae, in Oryza sativa, read-out: Test A control value class
# [5] = tested on: Plasmopara viticola; assay: Test Example G: Downy mildew on vine; conditions: for Test G control value class: Downy mildew on vine (Neomuscat), 2.5 ml/pot, assessed 7 to 10 days after inoculation; for Test G control value: 7 to 10 days after inoculation; for pest or weed control at 250 ppm: Plasmopara viticola, topical, read-out: Test G control value class
# Description: Seeds of a test plant (grape variety: Neomuscat) were planted and cultivated until three to four first leaves appeared. In the test, the inventive compounds were dissolved into dimethyl sulfoxide-methanol mixture solution (volume ratio: 9/1), and the resultant solutions were diluted with well water to a concentration of 250 ppm to obtain the drug solutions. The drug solutions were sprayed to the test plant (2.5 ml/pot). After the drug solutions dried, a zoosporangia suspension (1-2×10^4 zoosporangia/ml) of Plasmopara viticola was inoculated to the plant by spraying. After the inoculation, the plant was kept in a mist chamber at room temperature of 20° C. for about 24 hours to promote the onset of disease. The degrees of disease development were investigated 7 to 10 days after the inoculation, and the effectiveness of the drug solutions was evaluated.
# In Test Examples described above, the degrees of disease development were evaluated in increments of 0.05 from 0 (as no incidence of disease) to 3 (as the degree of disease development in an untreated plant group). Further, control values were calculated using the following equation based on the degree of disease development.
# n=Degree of disease development in each treated group
# [6] = tested on: Alternaia brassicicola; assay: Test Example C: Alternaria sooty spot on cabbage; format: in vivo; conditions: for Test C control value class / pest or weed control at 250 µg/mL: class of control value; for pest or weed control at 250 µg/mL: Brassica oleracea, topical, read-out: Test C control value class
# Description: Seeds of a test plant (cabbage variety: Shikidori) were planted and cultivated until the cotyledons extended.
# <Control Value> Control value=100{1−(n/3)}
# [7] = tested on: Phytophthora infestans; assay: whole plant or invertebrate; format: in vivo; conditions: for Test F control value class: class of control value; for pest or weed control at 250 µg/mL: Phytophthora infestans, in Solanum lycopersicum, topical, read-out: Test F control value class
# [8] = tested on: Blumeria graminis f. sp. hordei; assay: Test Example D: Powdery mildew on barley; conditions: for Test D control value class: class of control value; for pest or weed control at 250 µg/mL: Blumeria graminis, in Hordeum vulgare, topical, read-out: Test D control value class
# [9] = Alternaria sooty spot on cabbage
# [10] = 250 ppm drug solution sprayed on test plant
SMILES,pest or weed control at 250 µg/mL ([1]; Brown rust on wheat),pest or weed control at 250 ppm [2],pest or weed control at 250 µg/mL [3],pest or weed control at 250 µg/mL [4],pest or weed control at 250 ppm [5],"pest or weed control at 250 µg/mL [6, 9]",pest or weed control at 250 µg/mL [7],pest or weed control at 250 µg/mL [8],further results
CCn1c(-c2c(F)cc(F)cc2F)c(C(C)(O)C(C)(C)C)cc(Cl)c1=O (racemic) [compound 174],–,–,–,–,–,–,–,–,"Test E control value class ([1]; Brown rust on wheat): H (more than 50% control value); Test H control value class ([2]; 250 ppm spray): L (50% or less control value); Test B control value class ([3]; Gray mold on tomato): H (more than 50% control value); Test A control value class ([4]; Blast on rice): H (more than 50% control value); Test G control value class ([5]; 250 ppm spray): L (50% or less control value); Test C control value class [6, 9]: H (more than 50% control value); Test F control value class ([7]; Late blight on tomato): L (50% or less control value); Test D control value class ([8]; Powdery mildew on barley): H (more than 50% control value)"
CCn1c(-c2c(F)cc(OC)cc2F)c(C(C)(O)C(C)(C)C)cc(Cl)c1=O (racemic) [compound 180],–,–,–,–,–,–,–,–,"Test E control value class ([1]; Brown rust on wheat): L (50% or less control value); Test H control value class ([2]; 250 ppm spray): L (50% or less control value); Test B control value class ([3]; Gray mold on tomato): H (more than 50% control value); Test A control value class ([4]; Blast on rice): H (more than 50% control value); Test G control value class ([5]; 250 ppm spray): L (50% or less control value); Test C control value class [6, 9]: H (more than 50% control value); Test F control value class ([7]; Late blight on tomato): L (50% or less control value); Test D control value class ([8]; Powdery mildew on barley): L (50% or less control value)"
CCn1c(-c2c(F)cccc2F)c(C(C)(F)C(C)C)cc(Cl)c1=O (racemic) [compound 184],–,–,–,–,–,–,–,–,"Test E control value class ([1]; Brown rust on wheat): H (more than 50% control value); Test H control value class ([2]; 250 ppm spray): H (more than 50% control value); Test B control value class ([3]; Gray mold on tomato): H (more than 50% control value); Test A control value class ([4]; Blast on rice): H (more than 50% control value); Test G control value class ([5]; 250 ppm spray): H (more than 50% control value); Test C control value class [6, 9]: H (more than 50% control value); Test F control value class ([7]; Late blight on tomato): L (50% or less control value); Test D control value class ([8]; Powdery mildew on barley): H (more than 50% control value)"
CCOC(C)(c1cc(Cl)c(=O)n(CC)c1-c1c(F)cccc1F)C(C)C (racemic) [compound 188],–,–,–,–,–,–,–,–,"Test E control value ([1]; Brown rust on wheat, control value class): H (more than 50% control value); Test H control value ([2]; Anthracnose on cucumber, 250 ppm spray): H (more than 50% control value); Test B control value ([3]; Gray mold on tomato, control value class): H (more than 50% control value); Test A control value ([4]; Blast on rice, control value class): H (more than 50% control value); Test G control value ([5]; Downy mildew on vine, 250 ppm spray): H (more than 50% control value); Test C control value ([6]; Alternaria sooty spot on cabbage, control value class): H (more than 50% control value); Test F control value ([7]; Late blight on tomato, control value class): H (more than 50% control value); Test D control value ([8]; Powdery mildew on barley, control value class): H (more than 50% control value)"
CCC(O)c1ccc(=O)n(CC)c1-c1c(F)cc(F)cc1F (racemic) [compound 469],–,–,–,–,–,–,–,–,"Test E control value [1, 10]: L (50% or less control value); Test H control value ([2]; 250 ppm drug solution sprayed (2.5 ml/pot), cucumber Sagami Hanjiro): H (more than 50% control value); Test B control value [3, 10]: H (more than 50% control value); Test A control value [4, 10]: L (50% or less control value); Test G control value ([5]; 250 ppm drug solution sprayed (2.5 ml/pot), grape Neomuscat): L (50% or less control value); Test C control value [6, 10]: H (more than 50% control value); Test F control value [7, 10]: L (50% or less control value); Test D control value [8, 10]: L (50% or less control value)"
"CCn1c(-c2c(F)cccc2F)c(C)ccc1=O [Compound No. 1, 6-(2,6-difluorophenyl)-1-ethyl-5-methylpyridin-2(1H)-one]",< 50%,< 50%,< 50%,> 50%,< 50%,< 50%,< 50%,< 50%,–
"CCn1c(-c2c(F)cccc2F)c(C)cc(Cl)c1=O [Compound No. 2, 3-chloro-6-(2,6-difluorophenyl)-1-ethyl-5-methylpyridin-2(1H)-one]",< 50%,> 50%,< 50%,> 50%,< 50%,< 50%,> 50%,> 50%,–
"CCn1c(-c2c(F)cc(F)cc2F)c(C(C)C)ccc1=O [Compound No. 7, 1-ethyl-5-isopropyl-6-(2,4,6-trifluorophenyl)pyridin-2(1H)-one]",> 50%,> 50%,> 50%,> 50%,> 50%,> 50%,< 50%,> 50%,–
"CCn1c(-c2c(F)cc(F)cc2F)c(C(C)C)cc(Cl)c1=O [Compound No. 8, 3-chloro-1-ethyl-5-isopropyl-6-(2,4,6-trifluorophenyl)pyridin-2(1H)-one]",> 50%,> 50%,> 50%,> 50%,< 50%,> 50%,< 50%,> 50%,–
"CCn1c(-c2c(F)cc(OC)cc2F)c(C(C)C)ccc1=O [Compound No. 10, 6-(2,6-Difluoro-4-methoxyphenyl)-1-ethyl-5-isopropylpyridin-2(1H)-one]",> 50%,> 50%,> 50%,> 50%,< 50%,> 50%,< 50%,> 50%,–
"CCn1c(-c2c(F)cc(OC)cc2F)c(C(C)C)cc(Cl)c1=O [Compound No. 11, 3-Chloro-6-(2,6-difluoro-4-methoxyphenyl)-1-ethyl-5-isopropylpyridin-2(1H)-one]",> 50%,> 50%,> 50%,> 50%,< 50%,> 50%,< 50%,> 50%,–
"CCn1c(-c2c(F)cccc2F)c(C=O)cc(Cl)c1=O [Compound No. 20, 5-chloro-2-(2,6-difluorophenyl)-1-ethyl-6-oxo-1,6-dihydropyridine-3-carb aldehyde]",> 50%,< 50%,> 50%,> 50%,> 50%,< 50%,< 50%,< 50%,–
"CCn1c(-c2c(F)cccc2F)c(C(Br)Br)cc(Cl)c1=O [Compound No. 21, 3-chloro-5-(dibromomethyl)-6-(2,6-difluorophenyl)-1-ethylpyridin-2(1H)-one]",> 50%,< 50%,> 50%,< 50%,> 50%,< 50%,< 50%,> 50%,–
"CCC(O)c1cc(Cl)c(=O)n(CC)c1-c1c(F)cccc1F (centres unmarked) [Compound No. 24, 3-chloro-6-(2,6-difluorophenyl)-1-ethyl-5-(1-hydroxypropyl)pyridin-2(1H)-one]",> 50%,> 50%,> 50%,> 50%,< 50%,> 50%,< 50%,> 50%,–
"CCC(OC)c1cc(Cl)c(=O)n(CC)c1-c1c(F)cccc1F (centres unmarked) [Compound No. 25, 3-chloro-6-(2,6-difluorophenyl)-1-ethyl-5-(1-methoxypropyl)pyridin-2(1H)-one]",> 50%,> 50%,> 50%,> 50%,> 50%,> 50%,< 50%,> 50%,–
"CCC(=O)c1cc(Cl)c(=O)n(CC)c1-c1c(F)cccc1F [Compound No. 26, 3-chloro-6-(2,6-difluorophenyl)-1-ethyl-5-propionylpyridin-2(1H)-one]",> 50%,> 50%,> 50%,> 50%,> 50%,> 50%,< 50%,> 50%,–
